Residues, ends and D or L forms follow the SMILES beside them. *: point of attachment. X1 = O=C(COc1ccc(-c2ccccn2)cc1)NCCCCCCCCN*
Key:
Type in all cases: cell-based
mitofusin 2 (MFN2) = assay: Western blot analysis of MFN2 in Jurkat cells
Description: In a 1.5 mL Eppendorf tube, Jurkat cells (1.0 × 10^6 cells) were incubated in the presence of 4 ([…]), CGP37157 (100 μM for 0–24 h or 0–100 μM for 12 h), and celastrol (0–10 μM for 24 h or 1 μM for 0–24 h) at 37 °C under 5% CO2. After the cells had been washed twice with PBS, the proteins were extracted by using RIPA buffer (Nacalai Tesque) and quantified using a Pierce BCA Protein Assay Kit (Thermo Scientific). Proteins (7.5 μg/well) for MFNs and DRP1 and proteins (5.0 μg/well) for GAPDH were used for sodium dodecyl sulfate–polyacrylamide gel electrophoresis (SDS–PAGE) (7.5% for MFNs and DRP1 and 10% for GAPDH) (Bio-Rad). After SDS–PAGE, the proteins were transferred to a polyvinylidene fluoride membrane (Merck Millipore) by using a semi dry blotter (Bio-Rad). The membrane was blocked with Blocking One solution (Nacalai Tesque) for 30 min at room temperature. After being blocked, the membrane was washed three times with 1× TBST and treated with primary antibodies overnight (at a dilution of 1/1000 for MFNs and DRP1 or 1/2000 for GAPDH) in a signal enhancer HIKARI-solution A (Nacalai Tesque). The membrane was washed three times with 1× TBST and treated with the anti-mouse or anti-rabbit IgG HRP-conjugated secondary antibody (at a dilution of 1/4000 for MFNs and DRP1 or 1/10000 for GAPDH) in 1× TBST for 60 min at room temperature. The protein signal was spotted with a Chemi-Lumi One Ultra solution (Nacalai Tesque) using the ChemiDoc MP system (Bio-Rad). […]

Jurkat cells [1] = assay: Mitochondrial Ca2+ by flow cytometry with Rhod-2
Description: Other characteristic phenomena of paraptosis such as a mitochondrial Ca^2+ overload and loss of mitochondrial membrane potential (ΔΨm) induced by CGP37157 were also examined. Intracellular Ca^2+ concentrations were measured by flow cytometry using red-emitting Ca^2+ probes, Rhod-2 (a mitochondrial Ca^2+ probe) and Rhod-4 (a cytosolic Ca^2+ probe). Jurkat cells were stained with Rhod-2/AM or Rhod-4/AM (at 5 μM) and then treated with CGP37157 (100 μM) or 4 (5 μM) for a given period of incubation, immediately after which the emission intensity of Rhod-2 and Rhod-4 was measured by flow cytometry. […]
In a 1.5 mL Eppendorf tube, Jurkat cells (2.0 × 10^5 cells) were incubated in the presence of Rhod-2/AM (5 μM, 100 μL) or Rhod-4/AM (5 μM, 100 μL) in 10% FBS/RPMI 1640 medium for 30 min at 37 °C under 5% CO2 and then treated with 4 (5 μM, 0–30 min) or CGP37157 (100 μM, 0–6 h) in 10% FBS/RPMI 1640 medium (100 μL) for 30 min at 37 °C under 5% CO2. Immediately after the treatment, 10% FBS/RPMI 1640 medium (300 μL) was added to the cells and the samples were analyzed on a flow cytometer (FACSCalibur cytometer, Becton). The data were analyzed on FlowJo software (FlowJo, LCC).

Jurkat cells [2] = assay: Mitochondrial membrane potential (ΔΨm) by DilC1(5) confocal microscopy
Description: The mitochondrial membrane potential (ΔΨm) was measured by means of DilC1(5) (1,1′,3,3,3′,3′-hexamethylindodicarbocyanine iodide), the emission intensity of which responds to ΔΨm.[95] Jurkat cells were treated with CGP37157 (100 μM) for 1–12 h, stained with DilC1(5) (5 μM) for 30 min, and observed via confocal microscopy. […] The decrease in ΔΨm with 4 was also observed by confocal microscopy (Figure 6B).
In a 1.5 mL Eppendorf tube, Jurkat cells (2.0 × 10^5 cells) were stained with DilC1(5) (500 nM, 100 μL) in 10% FBS/RPMI 1640 medium for 30 min at 37 °C under 5% CO2, followed by the treatment with 4 (5 μM, 100 μL) in the medium for 0–60 min at 37 °C under 5% CO2. For CGP37157, Jurkat cells (2.0 × 10^5 cells) were treated with CGP37157 (100 μM, 100 μL) in 10% FBS/RPMI 1640 medium for 0–12 h at 37 °C under 5% CO2, followed by the treatment with DilC1(5) (500 nM, 100 μL) in PBS. The cells were washed with PBS and observed by confocal microscopy (Fluoview, FV-1000, Olympus) using a Greiner CELLview dish (35 mm × 10 mm). Excitation at 405 nm and emission from 470 to 520 nm were used for 4. Excitation at 635 nm and emission from 650 to 750 nm were used for DilC1(5). The exposure time was 20 μs/pixel.

Jurkat cells [3] = assay: Mitochondria-ER membrane fusion, co-staining with MitoTracker Green and ER-Tracker Red
Description: To verify this hypothesis, mitochondria and the ER were stained with both MitoTracker Green and ER-Tracker Red in the presence of 4, CGP37157, and celastrol (Figure 8). Jurkat cells were stained with MitoTracker Green (0.5 μM) and ER-Tracker Red (1 μM) and then treated with 4 (5 μM) for 10–30 min (time-dependent microscopic images are presented in Figure S5). […] With regard to CGP37157 and celastrol, Jurkat cells were stained with MitoTracker Green (0.5 μM) and ER-Tracker Red (1 μM) and then treated with CGP37157 (100 μM) and celastrol (1 μM) for 1–24 h (Figure 8 and Figure S5).
In a 1.5 mL Eppendorf tube, Jurkat cells (2.0 × 10^5 cells) were stained with MitoTracker Green (0.5 μM) for 1 h at 37 °C under 5% CO2 and then ER-Tracker Red (1 μM) for 1 h at 37 °C under 5% CO2 in 10% FBS/RPMI 1640 medium (100 μL). After being washed with PBS, the cells were treated with 4 (5 μM) in 10% FBS/RPMI 1640 medium (100 μL) for 0–30 min at 37 °C under 5% CO2. For CGP37157 and celastrol, Jurkat cells were treated with CGP37157 (100 μM) or celastrol (1 μM) in 10% FBS/RPMI 1640 medium (100 μL) for 0–24 h, after which the cells were stained with MitoTracker Green (0.5 μM) for 1 h at 37 °C under 5% CO2 and then ER-Tracker Red (1 μM) for 1 h at 37 °C under 5% CO2 in PBS. The cells were washed with PBS and observed by confocal microscopy (Fluoview, FV-1000, Olympus) using a Greiner CELLview dish (35 mm × 10 mm). Excitation at 473 nm and emission from 485 to 545 nm were used for MitoTracker Green. Excitation at 559 nm and emission from 570 to 620 nm were used for ER-Tracker Red. The exposure time was 20 μs/pixel.

| SMILES | Expression level of MFN2 (Figure 11B) (mitofusin 2 (MFN2); CGP37157 100 μM, 1–6 h) | MFN2 band intensity relative to absence of compound (mitofusin 2 (MFN2); Figure S8B, CGP37157 10 µM, 12 h) | MFN2 band intensity relative to absence of compound (mitofusin 2 (MFN2); Figure S8B, CGP37157 20 µM, 12 h) | MFN2 band intensity relative to absence of compound (mitofusin 2 (MFN2); Figure S8B, CGP37157 50 µM, 12 h) | MFN2 band intensity relative to absence of compound (mitofusin 2 (MFN2); Figure S8B, CGP37157 80 µM, 12 h) | MFN2 band intensity relative to absence of compound (mitofusin 2 (MFN2); Figure S8B, CGP37157 100 µM, 12 h) | Emission intensity of Rhod-2 (mitochondrial Ca2+) (Jurkat cells [1]; CGP37157 100 μM, 6 h after treatment) | Emission of DilC1(5) (ΔΨm) (Jurkat cells [2]; CGP37157 100 μM, 6 h) | Overlap of MitoTracker Green and ER-Tracker Red emission (mitochondria-ER membrane fusion) (Jurkat cells [3]; CGP37157 100 μM, 6 h) | Expression level of MFN2 (Figure 11A) (mitofusin 2 (MFN2); 4 at 5 μM, 30 min to 1 h) | MFN2 band intensity relative to absence of compound (mitofusin 2 (MFN2); Figure S8A, 4 at 1 µM, 1 h per legend) | MFN2 band intensity relative to absence of compound (mitofusin 2 (MFN2); Figure S8A, 4 at 2.5 µM, 1 h per legend) | MFN2 band intensity relative to absence of compound (mitofusin 2 (MFN2); Figure S8A, 4 at 5 µM, 1 h per legend) | MFN2 band intensity relative to absence of compound (mitofusin 2 (MFN2); Figure S8A, 4 at 10 µM, 1 h per legend) | MFN2 band intensity relative to absence of compound (mitofusin 2 (MFN2); Figure S8A, 4 at 20 µM, 1 h per legend) | Emission intensity of Rhod-2 (mitochondrial Ca2+) (Jurkat cells [1]; 4 at 5 μM, 10–30 min after treatment) | Emission of DilC1(5) (ΔΨm) (Jurkat cells [2]; 4 at 5 μM, 20 min after treatment) | Overlap of MitoTracker Green and ER-Tracker Red emission (mitochondria-ER membrane fusion) (Jurkat cells [3]; 4 at 5 μM, 10 min) |
| --- | --- | --- | --- | --- | --- | --- | --- | --- | --- | --- | --- | --- | --- | --- | --- | --- | --- | --- |
| O=C1CSC(c2ccccc2Cl)c2cc(Cl)ccc2N1 (stereo not drawn) [CGP37157] | weakly changed | 1.1 | 1.6 | 1.4 | 1.2 | 0.95 | enhanced | quenched | extensively overlapped |  |  |  |  |  |  |  |  |  |
| NCCCC[C@H](NC(=O)[C@H](CCCCN)NC(=O)[C@@H](N)CCCCN)C(=O)NCC(=O)NCC(=O)NCCCCCCCCNC(=O)COc1ccc(-c2ccccn2)cc1 [compound 4] (H-KKKGG-X1) |  |  |  |  |  |  |  |  |  | weakly changed | 1.3 | 1.3 | 1.4 | 1.4 | 1.3 | enhanced | decrease in emission intensity | extensively overlapped |

From PMC9022229, “Induction of Paraptosis by Cyclometalated Iridium Complex-Peptide Hybrids and CGP37157 via a Mitochondrial Ca^2+ Overload Triggered by Membrane Fusion between Mitochondria and the Endoplasmic Reticulum” (Biochemistry, 2022)
